Assay results reported in patent US9073821B2, “Hydroxamic acid derivative” (priority 2010, dated 2015).

Molecular target: Pseudomonas aeruginosa LpxC enzyme (Pseudomonas aeruginosa (strain ATCC 15692 / DSM 22644 / CIP 104116 / JCM 14847 / LMG 12228 / 1C / PRS 101 / PAO1), UniProt P47205)
Assay: biochemical
Format: biochemical
Details: class symbols A/B/C by IC50; Table 3; read-out: Enzyme inhibitory activity (inhibitory activity on Pseudomonas aeruginosa LpxC enzyme)

| IC50 [nM] | SMILES |
| --- | --- |
| < 10 | CNC(=O)C(C(=O)NO)N(C)C(=O)c1ccc(C#Cc2ccc(CN3CC(OC)C3)cc2)cc1 (stereo not shown) [Compound 505, N-hydroxy-2-[{[4-({4-[(3-methoxyazetidin-1-yl)methyl]phenyl}ethynyl)phenyl]carbonyl}(methyl)amino]-N′-methylpropanediamide] |
| < 10 | CCOC1CN(Cc2cc(C#Cc3ccc(C(=O)N(C)[C@@](C)(C(=O)NC)C(=O)NO)cc3)co2)C1 [Compound 584, (2S)-2-[{[4-({5-[(3-ethoxyazetidin-1-yl)methyl]furan-3-yl}ethynyl)phenyl]carbonyl}(methyl)amino]-N-hydroxy-N′,2-dimethylpropanediamide] |
| 10 to 100 | CCOC1CN(Cc2ccc(C#Cc3ccc(C(=O)N(C)C(C(=O)NC)C(=O)NO)cc3)cc2OC)C1 (stereo not shown) [Compound 572, 2-[{[4-({4-[(3-ethoxyazetidin-1-yl)methyl]-3-methoxyphenyl}ethynyl)phenyl]carbonyl}(methyl)amino]-N-hydroxy-N′-methylpropanediamide] |
| < 10 | CNC(=O)[C@@](C)(C(=O)NO)N(C)C(=O)c1ccc(C#C/C=C/CCCOC)cc1 [Compound 597, (2S)-N-hydroxy-2-[{4-[(3E)-7-methoxyhept-3-en-1-yn-1-yl]benzoyl}(methyl)amino]-N′,2-dimethylpropanediamide] |

Same assay, conditions: inhibitory activity on Pseudomonas aeruginosa LpxC enzyme, class symbols A/B/C; read-out: Enzyme inhibitory activity

| IC50 [nM] | SMILES |
| --- | --- |
| < 10 | CNC(=O)C(C(=O)NO)N(C)C(=O)c1ccc(C#CC#Cc2ccoc2)cc1 (stereo not shown) [Compound 484, 2-[({4-[4-(furan-3-yl)buta-1,3-diyn-1-yl]phenyl}carbonyl)(methyl)amino]-N-hydroxy-N′-methylpropanediamide] |
| 10 to 100 | CNC(=O)C(C(=O)NO)N(C)C(=O)c1ccc(-c2ccc(SC)nc2)cc1 (stereo not shown) [Compound 469, N-hydroxy-N′-methyl-2-[methyl({4-[6-(methylsulfanyl)pyridin-3-yl]phenyl}carbonyl)amino]propanediamide] |
| < 10 | CNC(=O)[C@@](C)(C(=O)NO)N(C)C(=O)c1ccc(-c2ccc(OCCN3CCOCC3)cc2)cc1 [Compound 437, (2S)-N-hydroxy-N′,2-dimethyl-2-[methyl({4′-[2-(morpholin-4-yl)ethoxy]biphenyl-4-yl}carbonyl)amino]propanediamide] |
| < 10 | CNC(=O)C(C(=O)NO)N(C)C(=O)c1ccc(C#CC#Cc2ccc(CN3CCN(C)CC3)cc2)cc1 (stereo not shown) [Compound 492, N-hydroxy-N′-methyl-2-(methyl {[4-(4-{4-[(4-methylpiperazin-1-yl)methyl]phenyl}buta-1,3-diyn-1-yl)phenyl]carbonyl}amino)propanediamide] |
| < 10 | CNC(=O)C(C(=O)NO)N(C)C(=O)c1ccc(C#Cc2ccc(CNCCS(C)(=O)=O)cc2)cc1 (stereo not shown) [Compound 378, N-hydroxy-N′-methyl-2-{methyl[(4-{[4-({[2-(methylsulfonyl)ethyl]amino}methyl)phenyl]ethynyl}phenyl)carbonyl]amino}propanediamide] |
| < 10 | CNC(=O)C(C(=O)NO)N(C)C(=O)c1ccc(C#CC#Cc2ccc(CNC3CC3)cc2)cc1 (stereo not shown) [Compound 476, 2-[{[4-(4-{4-[(cyclopropylamino)methyl]phenyl}buta-1,3-diyn-1-yl)phenyl]carbonyl}(methyl)amino]-N-hydroxy-N′-methylpropanediamide] |

More lines, now with the values behind:

| SMILES | IC50 [nM] |
| --- | --- |
| CNC(=O)C(C(=O)NO)N(C)C(=O)c1ccc(C#Cc2ccc(CN3CCC(O)CC3)cc2)cc1 (stereo not shown) [Compound 334, N-hydroxy-2-[{[4-({4-[(4-hydroxypiperidin-1-yl)methyl]phenyl}ethynyl)phenyl]carbonyl}(methyl)amino]-N′-methylpropanediamide] | < 10 |
| CNC(=O)C(C(=O)NO)N(C)C(=O)c1ccc(-c2cc(F)c(NC)c(F)c2)cc1 (stereo not shown) [Compound 69, 2-[{[3′,5′-difluoro-4′-(methylamino)biphenyl-4-yl]carbonyl}(methyl)amino]-N-hydroxy-N′-methylpropanediamide] | < 10 |
| CNC(=O)C(C(=O)NO)N(C)C(=O)c1ccc(-c2ccc(CN(C)C(C)=O)cc2)cc1 (stereo not shown) [Compound 239, 2-{[(4′-{[acetyl(methyl)amino]methyl}biphenyl-4-yl)carbonyl](methyl)amino}-N-hydroxy-N′-methylpropanediamide] | 10 to 100 |
| CNC(=O)C(C(=O)NO)N(OC)C(=O)c1ccc(-c2ccccc2)cc1 (stereo not shown) [Compound 17, 2-[(biphenyl-4-ylcarbonyl)(methoxy)amino]-N-hydroxy-N′-methylpropanediamide] | 10 to 100 |
| CNC(=O)C(C(=O)NO)N(C)C(=O)c1ccc(-c2ccc(NC)c(F)c2)cc1 (stereo not shown) [Compound 38, 2-[{[3′-fluoro-4′-(methylamino)biphenyl-4-yl]carbonyl}(methyl)amino]-N-hydroxy-N′-methylpropanediamide] | < 10 |
| O=C(NC(C(=O)NO)C(=O)NCc1cccnc1)c1ccc(-c2ccc(OCCO)cc2)cc1 (stereo not shown) [Compound 129, N-hydroxy-2-({[4′-(2-hydroxyethoxy)biphenyl-4-yl]carbonyl}amino)-N′-(pyridin-3-ylmethyl)propanediamide] | < 10 |
| CNC(=O)C(C(=O)NO)N(C)C(=O)c1ccc(-c2ccc(OCC3(CN4CCOCC4)CC3)cc2)cc1 (stereo not shown) [Compound 102, N-hydroxy-N′-methyl-2-{methyl[(4′-{[1-(morpholin-4-ylmethyl)cyclopropyl]methoxy}biphenyl-4-yl)carbonyl]amino}propanediamide] | 10 to 100 |
| CNC(=O)C(C(=O)NO)N(C)C(=O)c1ccc(-c2ccc(NC)cc2F)cc1 (stereo not shown) [Compound 226, 2-[{[2′-fluoro-4′-(methylamino)biphenyl-4-yl]carbonyl}(methyl)amino]-N-hydroxy-N′-methylpropanediamide] | < 10 |
| CNC(=O)C(C(=O)NO)N(C)C(=O)c1ccc(-c2ccc(CN(C)C)cc2)cc1 (stereo not shown) [Compound 194, 2-[({4′-[(dimethylamino)methyl]biphenyl-4-yl}carbonyl)(methyl)amino]-N-hydroxy-N′-methylpropanediamide] | > 100 |
| CNC(=O)C(C(=O)NO)N(C)C(=O)c1ccc(-c2ccc(/C=N/O)cc2)cc1 (stereo not shown) [Compound 195, N-hydroxy-2-[({4′-[(E)-(hydroxyimino)methyl]biphenyl-4-yl}carbonyl)(methyl)amino]-N′-methylpropanediamide] | < 10 |
| O=C(NC(C(=O)NO)C(=O)NO)c1ccc(-c2ccccc2)cc1 [Compound 109, 2-[(biphenyl-4-ylcarbonyl)amino]-N,N′-dihydroxypropanediamide] | 10 to 100 |
| CNC(=O)C(C(=O)NO)N(C)C(=O)c1ccc(-c2ccc(C)c(F)c2)cc1 (stereo not shown) [Compound 28, 2-{[(3′-fluoro-4′-methylbiphenyl-4-yl)carbonyl](methyl)amino}-N-hydroxy-N′-methylpropanediamide] | < 10 |
| CNC(=O)C(C(=O)NO)N(C)C(=O)c1ccc(-c2ccc(C(C)(C)O)cc2)cc1 (stereo not shown) [Compound 262, N-hydroxy-2-[{[4′-(2-hydroxypropan-2-yl)biphenyl-4-yl]carbonyl}(methyl)amino]-N′-methylpropanediamide] | 10 to 100 |
| CNC(=O)C(C(=O)NO)N(C)C(=O)c1ccc(-c2ccc(NCC3CC3)cc2)cc1 (stereo not shown) [Compound 79, 2-[({4′-[(cyclopropylmethyl)amino]biphenyl-4-yl}carbonyl)(methyl)amino]-N-hydroxy-N′-methylpropanediamide] | < 10 |
| CNC(=O)C(C(=O)NO)N(C)C(=O)c1ccc(-c2ccc([C@@H](C)NC(=O)OC(C)(C)C)cc2)cc1 (stereo partly drawn) [Compound 34, tert-butyl[(1R)-1-(4′-{[1-(hydroxyamino)-3-(methylamino)-1,3-dioxopropan-2-yl](methyl)carbamoyl}biphenyl-4-yl)ethyl]carbamate] | 10 to 100 |
| CNC(=O)C(C(=O)NO)N(C)C(=O)c1ccc(-c2cnc3ccccc3c2)cc1 (stereo not shown) [Compound 192, N-hydroxy-N′-methyl-2-{methyl[4-(quinolin-3-yl)benzoyl]amino}propanediamide] | 10 to 100 |
| CNC(=O)C(C(=O)NO)N(C)C(=O)c1ccc(-c2ccc(/C=N/N(C)C)cc2)cc1 (stereo not shown) [Compound 275, 2-[({4′-[(E)-(dimethylhydrazinylidene)methyl]biphenyl-4-yl}carbonyl)(methyl)amino]-N-hydroxy-N′-methylpropanediamide] | < 10 |
| O=C(NC(C(=O)NO)C(=O)NO)c1ccc(-c2ccc(OCCO)cc2)cc1 [Compound 148, N,N′-dihydroxy-2-({[4′-(2-hydroxyethoxy)biphenyl-4-yl]carbonyl}amino)propanediamide] | 10 to 100 |
| CNC(=O)C(C(=O)NO)N(C)C(=O)c1ccc(-c2ccc(OCCCN3CCSCC3)cc2)cc1 (stereo not shown) [Compound 288, N-hydroxy-N′-methyl-2-[methyl({4′-[3-(thiomorpholin-4-yl)propoxy]biphenyl-4-yl}carbonyl)amino]propanediamide] | < 10 |
| CNC(=O)C(C(=O)NO)N(C)C(=O)c1ccc(-c2ccc(NC)cc2)c(NC)c1 (stereo not shown) [Compound 101, 2-[{[2,4′-bis(methylamino)biphenyl-4-yl]carbonyl}(methyl)amino]-N-hydroxy-N′-methylpropanediamide] | > 100 |
| CCN(C(=O)c1ccc(-c2ccc(NC)cc2)cc1)C(C(=O)NC)C(=O)NO (stereo not shown) [Compound 235, 2-(ethyl {[4′-(methylamino)biphenyl-4-yl]carbonyl}amino)-N-hydroxy-N′-methylpropanediamide] | < 10 |
| CNC(=O)C(C(=O)NO)N(C)C(=O)c1ccc(-c2ccsc2)cc1 (stereo not shown) [Compound 292, N-hydroxy-N′-methyl-2-(methyl {[4-(thiophen-3-yl)phenyl]carbonyl}amino)propanediamide] | 10 to 100 |
| CNC(=O)C(C(=O)NO)N(C)C(=O)c1ccc(-c2ccc(OCc3cccc(CN4CCOCC4)c3)cc2)cc1 (stereo not shown) [Compound 87, N-hydroxy-N′-methyl-2-{methyl[(4′-{[3-(morpholin-4-ylmethyl)benzyl]oxy}biphenyl-4-yl)carbonyl]amino}propanediamide] | < 10 |
| CNC(=O)C(C)(C(=O)NO)N(C)C(=O)c1ccc(-c2ccc(C)cc2)cc1 (stereo not shown) [Compound 349, N-hydroxy-N′,2-dimethyl-2-{methyl[(4′-methylbiphenyl-4-yl)carbonyl]amino}propanediamide] | < 10 |
